Test results from the NIST ThermoML archive (doi:10.1016/j.jct.2012.11.026).
Numbers after ± are expanded uncertainties.

What was measured:
[1] = Solid-liquid equilibrium temperature; settings: Crystal, visual observation
[2] = Liquid-liquid equilibrium temperature; settings: Nematic liquid crystal, visual observation

CCCCCOc1ccc(-c2ccc(C#N)cc2)cc1 [4'-pentoxy-4-cyanobiphenyl]
Solid-liquid equilibrium temperature ([1]; 399 kPa): 326.84 ± 0.19 K | Solid-liquid equilibrium temperature ([1]; 1399 kPa): 327.21 ± 0.21 K | Solid-liquid equilibrium temperature ([1]; 2400 kPa): 327.52 ± 0.22 K | Solid-liquid equilibrium temperature ([1]; 3001 kPa): 327.72 ± 0.23 K | Solid-liquid equilibrium temperature ([1]; 3400 kPa): 327.86 ± 0.23 K | Solid-liquid equilibrium temperature ([1]; 4401 kPa): 328.2 ± 0.23 K | Solid-liquid equilibrium temperature ([1]; 5401 kPa): 328.54 ± 0.24 K | Solid-liquid equilibrium temperature ([1]; 6402 kPa): 328.84 ± 0.24 K | Solid-liquid equilibrium temperature ([1]; 7403 kPa): 329.23 ± 0.25 K | Solid-liquid equilibrium temperature ([1]; 8403 kPa): 329.55 ± 0.25 K | Solid-liquid equilibrium temperature ([1]; 9405 kPa): 329.86 ± 0.25 K | Solid-liquid equilibrium temperature ([1]; 10005 kPa): 330.08 ± 0.26 K | Liquid-liquid equilibrium temperature ([2]; 399 kPa): 341.58 ± 0.19 K | Liquid-liquid equilibrium temperature ([2]; 1399 kPa): 341.96 ± 0.21 K | Liquid-liquid equilibrium temperature ([2]; 2400 kPa): 342.38 ± 0.23 K | Liquid-liquid equilibrium temperature ([2]; 3401 kPa): 342.75 ± 0.23 K | Liquid-liquid equilibrium temperature ([2]; 3901 kPa): 342.91 ± 0.24 K | Liquid-liquid equilibrium temperature ([2]; 4401 kPa): 343.13 ± 0.24 K | Liquid-liquid equilibrium temperature ([2]; 4902 kPa): 343.32 ± 0.24 K | Liquid-liquid equilibrium temperature ([2]; 5402 kPa): 343.51 ± 0.25 K | Liquid-liquid equilibrium temperature ([2]; 6403 kPa): 343.9 ± 0.25 K | Liquid-liquid equilibrium temperature ([2]; 7404 kPa): 344.3 ± 0.26 K | Liquid-liquid equilibrium temperature ([2]; 8404 kPa): 344.7 ± 0.26 K | Liquid-liquid equilibrium temperature ([2]; 9405 kPa): 345.1 ± 0.27 K | Liquid-liquid equilibrium temperature ([2]; 10005 kPa): 345.33 ± 0.27 K
